# PMC12383815 (Biomolecules, 2025)
# Structures can show the parent of a compound that is named as a salt.
# Biological target: T1, shikimate dehydrogenase (SaSDH) (Staphylococcus aureus, UniProt Q6GGA5)
# T1 construct: gene aroE
# T1 sequence (Q6GGA5 1-268): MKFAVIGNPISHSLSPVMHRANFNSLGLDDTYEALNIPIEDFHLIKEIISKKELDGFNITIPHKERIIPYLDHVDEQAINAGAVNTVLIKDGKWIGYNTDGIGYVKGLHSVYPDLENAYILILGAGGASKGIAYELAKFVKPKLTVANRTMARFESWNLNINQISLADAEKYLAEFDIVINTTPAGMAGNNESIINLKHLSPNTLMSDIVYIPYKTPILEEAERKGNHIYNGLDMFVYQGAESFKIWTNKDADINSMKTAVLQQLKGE
# Experiment: biochemical
# Set-up: SaSDH enzyme activity inhibition screening at 500 uM, 10% DMSO
# Conditions: not given
# Description: The inhibition percentage was determined by measuring enzyme activity under the conditions previously described by adding each compound from an in-house natural product derivative chemical library (40 compounds) to the reaction mixture at quantities of 500 μM; these compounds had been previously dissolved in Dimethyl Sulfoxide (DMSO), keeping 10% DMSO as final concentration. The percentage inhibition was calculated by adjusting the data from the following equation [33]: Inhibition %=A0−A1/A0 ×100 where the following definitions are used: In the search for new SaSDH inhibitors, an in-house chemical library of 40 natural product derivatives was screened against SaSDH activity. Our findings indicate that among the 40 molecules evaluated, the compounds phloridzin (93% of inhibition), rutin (87% of inhibition), and caffeic acid (70% of inhibition) inhibited SaSDH using a 500 µM concentration.
row,SMILES,inhibition at 500 µM [%]
1,Cc1ncc(CO)c(CO)c1O [Pyridoxine],28
2,COC(=O)c1ccc(OC)cc1O [Methyl 4-methoxysalicylate],10
3,N#Cc1cnc(N)s1 [2-Aminothiazole-5-carbonitrile],17
4,"C1SCC2OC12 (centres unmarked) [3,4-Epoxy-tetrahydrothiophene]",9
5,"Nc1nc(-c2ccc3c(c2)CCCC3)cs1 [2-Amino-4-(5,6,7,8-tetrahydronaphthalen-2-yl)thiazole]",8
6,O=Cc1c[nH]c2c1ccc1ccccc12 [1H-Benzo[g]indole-3-carboxaldehyde],19
7,O=C(O)c1cccnc1 [Nicotinic acid],20
8,COc1ccc(-c2coc3cc(O)ccc3c2=O)cc1 [Formononetin],13
9,NC(=O)c1cccnc1 [Nicotinamide],5
10,CC1=CC(=O)c2ccccc2C1=O [Menadione],17
11,FC(F)(F)c1ccc(Br)cn1 [5-Bromo-2-(trifluoromethyl)pyridine],9
12,OC[C@H]1O[C@@H](OCCc2ccc(O)cc2)[C@H](O)[C@@H](O)[C@@H]1O [Salidroside],27
13,"Clc1ccnc(Cl)c1 [2,4-Dichloropyridine]",19
14,Cc1ncc(CO)c(C)c1O [4-Deoxypyridoxine hydrochloride],12
15,Nc1ccc(Br)cn1 [2-Amino-5-bromopyridine],8
16,O=C1O[C@H]([C@@H](O)CO)C(O)=C1O [L-Ascorbic acid],4.5
17,COc1cc(C(=O)OCCCCNC(=N)N)cc(OC)c1O [Leonurine],13
18,Cn1ccnc1S(=O)(=O)Cl [1-Methylimidazole-2-sulfonyl chloride],13
19,Brc1nc2ccccc2[nH]1 [2-Bromo-1H-benzimidazole],10
20,Fc1ccc(Cl)nc1 [2-Chloro-5-fluoropyridine],18
21,O=C(Cl)c1nc2ccccc2s1 [Benzothiazole-2-carbonyl chloride],14
22,"COC(=O)c1nc[nH]c1C(=O)OC [Dimethyl imidazole-4,5-dicarboxylate]",18
23,COc1cccc(C(=O)O)c1 [3-Methoxybenzoic acid],2
24,O=C1CNCCN1 [2-Oxopiperazine],13
25,O=c1[nH]cc(Br)cc1[N+](=O)[O-] [5-Bromo-2-hydroxy-3-nitropyridine],18
26,CC(C)=CCC1=C(O)C(=O)c2ccccc2C1=O [Lapachol],6

# Biological target: T2, shikimate dehydrogenase (SaSDH) (Staphylococcus aureus, UniProt Q6GGA5)
# T2 construct: gene aroE
# Experiment: recombinant enzyme activity, NADPH formation at […] nm, dose-response; progress-curve kinetics
# Assay type: biochemical
# Conditions: not given
row,SMILES,IC50 [µM]
1,O=C(CCc1ccc(O)cc1)c1c(O)cc(O)cc1O[C@@H]1O[C@H](CO)[C@@H](O)[C@H](O)[C@H]1O [Phloridzin],140
2,O=C(O)/C=C/c1ccc(O)c(O)c1 [Caffeic acid],240

# Same assay, conditions: read-out: IC50
row,IC50 [µM],SMILES
1,165,C[C@@H]1O[C@@H](OC[C@H]2O[C@@H](Oc3c(-c4ccc(O)c(O)c4)oc4cc(O)cc(O)c4c3=O)[C@H](O)[C@@H](O)[C@@H]2O)[C@H](O)[C@H](O)[C@H]1O [Rutin]
